The source of these data is patent publication US6673781B1, “Tricyclic compounds having sPLA2-inhibitory activities” (Shionogi & Co., Ltd., priority 1999, dated 2004).

As usually defined, the IC50 is the concentration at which inhibition is half-maximal. As a reminder, the melting point is the temperature of the solid-liquid transition.

Series [1] deals with T1, recombinant human secretory phospholipase A2 (Homo sapiens, UniProt P14555).
T1 sequence (P14555 21-144): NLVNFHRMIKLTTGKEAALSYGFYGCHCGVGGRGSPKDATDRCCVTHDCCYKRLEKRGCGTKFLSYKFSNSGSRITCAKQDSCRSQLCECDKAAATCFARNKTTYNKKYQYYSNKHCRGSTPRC
The series can be described thus: Inhibition test of human secretory phospholipase A2 (chromogenic assay, 96 well microtiterplate). The class given is biochemical. The conditions noted are these: sPLA2 50 ng/well, 40° C., 30 minutes, OD 405 nm, substrate 1,2-bis(heptanoylthio)-1,2-dideoxy-sn-glycero-3-phospholylcholine. The text has this: Inhibition Test of Human Secretory Phospholipase A2 Analytical Experiment
In order to identify and evaluate an inhibitor of recombinant human secretory phospholipase A2, the following chromogenic assay is utilized. The assay herein has been applied for high volume screening wherein 96 well microtiterplate is used. A general explanation for such assay is described in “Analysis of Human Synovial Fluid Phospholipase A2 on Short Chain Phosphatidylcholine-Mixed Micelles: Development of a Spectrophotometric Assay Suitable for a Micortiterplate Reader” (Analytical Biochemistry, 204, pp 190-197, 1992 by Laure. J. Reynolds. Lori L. Hughes and Edward A. Dennis: the disclosure of which is incorporated herein for reference.
Bovine Serum Albumin (fatty acid free) (1 g/L) (Sigma A-7030)
pH 7.5 (adjusted with NaOH)
pH 4.5 (adjusted with acetic acid)
1 mg of sPLA2 is dissolved in 1 ml of an enzyme buffer. Thereafter, the solution is maintained at 4° C.
In the assay, 5 μl of the solution is diluted with 1995 μl of the reaction buffer to be used.
198 mg of 5,5′-dithiobis-2-[…] (manufactured by Wako Pure Chemicals) is dissolved in 100 ml of H2O
100 mg of racemic 1,2-bis(heptanoylthio)-1,2-dideoxy-sn-glycero-3-phospholylcholine is dissolved in 1 ml of chloroform.
624.9 mg of Triton-X 100 is dissolved in 100 ml of the reaction buffer.
Enzyme Reaction: for 1 plate of Microtiterplate
1) 0.106 ml of the substrate solution is put in a centrifugal tube, and nitrogen gas is jetted to remove the solvent. 0.54 ml of Triton-X 100 is added thereto, the mixture is stirred, thereafter it is sonified in a bath type sonification to dissolve. To the resulting product are added 17.8 ml of the reaction buffer and 0.46 ml of DTNB, and 0.18 ml each of the admixture is poured to wells of the 96 well microtiterplate.
2) 10 μl of a test compound (or solvent blank) are added in accordance with alignment of plates which has been previously set.
3) Incubation is effected at 40° C. for 15 minutes.
4) 20 μl of an enzyme solution (sPLA2) which has been previously diluted (50 ng/well) are added to start reaction (40° C., 30 minutes).
5) Changes in absorbancy for 30 minutes are measured by a plate reader, and inhibition activity was calculated (OD: 405 nm).
6) IC50 was determined by plotting log concentration with respect to inhibition values within 10% to 90% inhibiting range.

As for `NC(=O)C1=NOCc2c1c1c(OCC(=O)O)cccn1c2Cc1ccccc1` [Compound I-11], the 50% inhibitory concentration (IC50) in series [1] came out at 31 nM.

Molecule `NC(=O)C1=CCCc2c1c1c(OCC(=O)O)cccn1c2Cc1ccc(-c2ccccc2)cc1` [Compound I-13] displayed a melting point of 224 to 227 °C. Moreover, the 50% inhibitory concentration (IC50) in series [1] worked out at 10 nM.

For the molecule `NC(=O)c1nncc2c(Cc3ccccc3)n3cccc(OCC(=O)O)c3c12` [Compound I-10], the IC50 in series [1] was 39900 nM.

Regarding `COC(=O)COc1cccn2c(Cc3ccccc3)c3c(c12)C(C(N)=O)=NCC3` [Compound I-8], the IC50 in series [1] stood at 21100 nM.

For the molecule `NC(=O)C1=CCCc2c1c1cc(OCCCC(=O)O)ccn1c2Cc1ccccc1` [Compound I-5], the concentration for half-maximal inhibition (IC50) in series [1] was found to be 49 nM.

On to `CCOC(=O)CCCOc1ccn2c(Cc3ccccc3)c3c(c2c1)C(C(N)=O)=CCC3` [Compound I-4], for which the half-maximal inhibitory concentration (IC50) in series [1] is 175 nM.

For the molecule `NC(=O)C1OCCCc2c1c1c(OCC(=O)O)cccn1c2Cc1ccccc1` (stereo not drawn) [Compound I-7], the melting point fell in the range of 175 to 179 °C. The half-inhibitory concentration (IC50) in series [1] was found to be 269 nM.

In turn, `NC(=O)C1=NCCc2c1c1c(OCC(=O)O)cccn1c2Cc1ccccc1` [Compound I-9] showed a melting point of 196 to 198 °C. Moreover, the IC50 in series [1] was found to be 1590 nM.

`COC(=O)COc1cccn2c(Cc3ccccc3)c3c(c12)C(C(N)=O)OCCC3` (stereo not drawn) [Compound I-6] registered a melting point of 182 to 183 °C. Further, the 50% inhibitory concentration (IC50) in series [1] was 7500 nM.

In the case of `NC(=O)C1CCCc2c1c1c(OCC(=O)O)cccn1c2Cc1ccccc1` (stereo not drawn) [Compound I-3], the IC50 in series [1] was determined as 21 nM.

As to `COC(=O)COc1cccn2c(Cc3ccccc3)c3c(c12)C(C(N)=O)OCC3` (stereo not drawn) [Compound I-14], the melting point lay within 218 to 220 °C. The concentration for half-maximal inhibition (IC50) in series [1] was found to be 725 nM.

Regarding `NC(=O)C1=CCCc2c1c1c(OCC(=O)O)cccn1c2Cc1ccccc1` [Compound I-2], the half-maximal inhibitory concentration (IC50) in series [1] is 8 nM.

`COC(=O)COc1cccn2c(Cc3ccc(-c4ccccc4)cc3)c3c(c12)C(C(N)=O)=CCC3` [Compound I-12] gave a melting point of 196 to 198 °C. For the same molecule, the concentration for half-maximal inhibition (IC50) in series [1] is 125 nM.

Take `NC(=O)C1OCCc2c1c1c(OCC(=O)O)cccn1c2Cc1ccccc1` (stereo not drawn) [Compound I-15]: the melting point was 242 to 243 °C (dec.). In addition, the IC50 in series [1] is 35 nM.
